# Results reported in patent US20230364069A1, “METHOD FOR TREATING NON-ALCOHOLIC STEATOHEPATITIS THROUGH CO-ADMINISTRATION OF CURCUMIN DERIVATIVE AND TGF-B RECEPTOR INHIBITOR” (UNIVERSITY INDUSTRY FOUNDATION, YONSEI UNIVERSITY WONJU …, priority 2021, published 2023).
# Experiments:
# [1] = test system: AML12 cells (mouse hepatocyte cell lines); test: Fibrosis markers by Western blotting after TGF-β induction, TGF-β receptor inhibitor; type: cell-based; details: 2 ng/ml TGF-β, 10 μM EW-7197, 24 hours, FIG. 2
# Method: Cell experiments were performed by using AML12, […], and LX-2 cells, a human hepatic stellate cell.
# AML12 cells were cultured in a culture medium made by adding 5 ml of insulin (ITS), 40 ng/ml of dexamethasone, 1% penicillin streptomycin (anti-anti), and 10% fetal bovine serum (FBS) to F-12 media (Corning Incorporated, USA, Arizona), a mixture of a DMEM medium and Ham's F-12 at a ratio of 50:50, which is used for culturing hepatocytes or prostate epithelial cells.
# Fibrosis was induced in hepatocytes with TGF-β, a TGF-β receptor inhibitor was administered, and fibrosis was checked.
# Specifically, 2 ng/ml of TGF-β was administered to the cells of Example 1-1, and administered or not administered with 10 μM EW-7197 (EW), and cultured for 24 hours. The control group (Con) was not treated with either TGF-β or the sample. […] A protein concentration was measured by BCA assay (Pierce Biotechnology Inc). […] Then, the membranes were washed, briefly incubated with Pico Enhanced Peroxidase Detection (EPD) Western reagent (ELPISBIOTECH. INC.) according to the manufacturer's procedure, and quantified by using an image analyzer (ImageQuant™ LAS 500, GE Healthcare Bio-Sciences AB, Uppsala, Sweden). β-actin was used as an internal control. Densitometry of protein intensity was quantified by using ImageJ (National Institutes of Health). […]
# [2] = test system: renal fibrosis model; details: unilateral ureteral obstruction (UUO); previous studies; cited from earlier work
smiles,measurement,setting,value
"Cc1cccc(-c2[nH]c(CNc3ccccc3F)nc2-c2ccc3ncnn3c2)n1 [EW-7197, N-(2-fluorophenyl)-5-(6-methyl-2-pyridinyl)-4-[1,2,4]triazolo[1,5-a]pyridin-6-yl-1H-imidazole-2-methanamine]","protein expressions of α-SMA, Coll, p-SMAD2, and p-SMAD3 increased by TGF-β",[1],inhibited
same,tissue fibrosis (renal),[2],suppressing tissue fibrosis
